Each structure is given as a SMILES string.

As a reminder, the melting point is the temperature of the solid-liquid transition. Consider `CCC/C=C/S(=O)(=O)NC(=O)/C=C/c1c(Cl)nc(C)n1Cc1ccc(/C=C/c2ccccc2)cc1Cl` [Example 42, (E)-3-(4-chloro-1-(2-chloro-4-((E)-2-phenylethenyl)benzyl)-2-methylimidazol-5-yl)-N-((E)-1-penten-1-ylsulfonyl)-2-propenamide], for which the melting point lay in the range of 226 to 228 °C. As for `CCCCCS(=O)(=O)NC(=O)/C=C/c1c(Cl)nc(C)n1Cc1ccc(C#Cc2ccccc2)cc1Cl` [Example 44, (E)-3-(4-chloro-1-(2-chloro-4-(phenylethynyl)benzyl)-2-methylimidazol-5-yl)-N-(1-pentanesulfonyl)-2-propenamide], the figure is 207 to 209 °C; as for `CCC/C=C/S(=O)(=O)NC(=O)/C=C/c1c(Cl)nc(C)n1Cc1ccc(C#Cc2ccccc2)cc1Cl` [Example 45, (E)-3-(4-chloro-1-(2-chloro-4-(phenylethynyl)benzyl)-2-methylimidazol-5-yl)-N-((E)-1-penten-1-ylsulfonyl)-2-propenamide], 207 to 210 °C. Next, `Cc1nc(Cl)c(/C=C/C(=O)NS(=O)(=O)/C=C/c2ccccc2)n1Cc1ncc(C(F)(F)F)cc1Cl` [Example 47, (E)-3-(4-chloro-1-((3-chloro-5-(trifluoromethyl)pyridin-2-yl)methyl)-2-methylimidazol-5-yl)-N-((E)-2-phenylethenylsulfonyl)-2-propenamide]: 249 to 252 °C; `CCCCCS(=O)(=O)NC(=O)/C=C/c1c(Cl)nc(C)n1Cc1ccc(NC(=O)OC(C)(C)C)cc1Cl` [Example 49, (E)-3-(1-(4-(tert-butoxycarbonylamino)-2-chlorobenzyl)-4-chloro-2-methylimidazol-5-yl)-N-(1-pentanesulfonyl)-2-propenamide]: 202 to 204 °C. Next, `CCC/C=C/S(=O)(=O)NC(=O)/C=C/c1c(Cl)nc(C)n1Cc1ccc(NC(=O)OC(C)(C)C)cc1Cl` [Example 50, (E)-3-(1-(4-(tert-butoxycarbonylamino)-2-chlorobenzyl)-4-chloro-2-methylimidazol-5-yl)-N-((E)-1-penten-1-ylsulfonyl)-2-propenamide]: 209 to 210 °C; `CCc1nc(Cl)c(/C=C/C(=O)NS(=O)(=O)/C=C/c2ccccc2)n1Cc1ccc(Br)cc1Cl` [Example 53, (E)-3-(1-(4-bromo-2-chlorobenzyl)-4-chloro-2-ethylimidazol-5-yl)-N-((E)-2-phenylethenesulfonyl)-2-propenamide]: 209 to 210 °C; `CCc1nc(Cl)c(/C=C/C(=O)NS(=O)(=O)/C=C/c2ccccc2)n1Cc1ccc(C#Cc2ccccc2)cc1Cl` [Example 54, (E)-3-(4-chloro-1-(2-chloro-4-(phenylethynyl)benzyl)-2-ethylimidazol-5-yl)-N-((E)-2-phenylethenesulfonyl)-2-propenamide]: 233 to 234 °C. `CCCCS(=O)(=O)NC(=O)/C=C/c1c(Cl)nc(CC)n1Cc1ccc(C#Cc2ccccc2)cc1Cl` [Example 56, (E)-N-(1-butanesulfonyl)-3-(4-chloro-1-(2-chloro-4-(phenylethynyl)benzyl)-2-ethylimidazol-5-yl)-2-propenamide]: the melting point fell in the range of 165 to 167 °C. As for `CCCCCS(=O)(=O)NC(=O)/C=C/c1c(Cl)nc(CC)n1Cc1ccc(C#Cc2ccccc2)cc1Cl` [Example 57, (E)-3-(4-chloro-1-(2-chloro-4-(phenylethynyl)benzyl)-2-ethylimidazol-5-yl)-N-(1-pentanesulfonyl)-2-propenamide], the figure is 161 to 163 °C. In turn, `CCC/C=C/S(=O)(=O)NC(=O)/C=C/c1c(Cl)nc(CC)n1Cc1ccc(C#Cc2ccccc2)cc1Cl` [Example 58, (E)-3-(4-chloro-1-(2-chloro-4-(phenylethynyl)benzyl)-2-ethylimidazol-5-yl)-N-((E)-1-penten-1-ylsulfonyl)-2-propenamide] registered a melting point of 173 to 175 °C. As for `CCc1nc(Cl)c(/C=C/C(=O)NS(=O)(=O)c2ccc(C)cc2)n1Cc1ccc(/C=C/c2ccccc2)cc1Cl` [Example 60, (E)-3-(4-chloro-1-(2-chloro-4-((E)-2-phenylethenyl)benzyl)-2-ethylimidazol-5-yl)-N-(4-methylbenzenesulfonyl)-2-propenamide], the figure is 250 to 252 °C; as for `CCCCS(=O)(=O)NC(=O)/C=C/c1c(Cl)nc(CC)n1Cc1ccc(/C=C/c2ccccc2)cc1Cl` [Example 61, (E)-N-(1-butanesulfonyl)-3-(4-chloro-1-(2-chloro-4-((E)-2-phenylethenyl)benzyl)-2-ethylimidazol-5-yl)-2-propenamide], 210 to 213 °C. Next, `CCCCCS(=O)(=O)NC(=O)/C=C/c1c(Cl)nc(CC)n1Cc1ccc(/C=C/c2ccccc2)cc1Cl` [Example 62, (E)-3-(4-chloro-1-(2-chloro-4-((E)-2-phenylethenyl)benzyl)-2-ethylimidazol-5-yl)-N-(1-pentanesulfonyl)-2-propenamide]: 197 to 200 °C; `CCC/C=C/S(=O)(=O)NC(=O)/C=C/c1c(Cl)nc(CC)n1Cc1ccc(/C=C/c2ccccc2)cc1Cl` [Example 63, (E)-3-(4-chloro-1-(2-chloro-4-((E)-2-phenylethenyl)benzyl)-2-ethylimidazol-5-yl)-N-((E)-1-penten-1-ylsulfonyl)-2-propenamide]: 197 to 200 °C. As for `Cc1nc(C)n(Cc2ccc(Br)cc2Cl)c1/C=C/C(=O)NS(=O)(=O)/C=C/c1ccccc1` [Example 64, (E)-3-(1-(4-bromo-2-chlorobenzyl)-2,4-dimethylimidazol-5-yl)-N-((E)-2-phenylethenesulfonyl)-2-propenamide], the figure is 251 to 253 °C; as for `CCCCCOc1ccc(Cn2c(C)nc(Br)c2/C=C/C(=O)NS(=O)(=O)/C=C/c2ccccc2)c(Cl)c1` [Example 65, (E)-3-(4-bromo-1-(2-chloro-4-(1-pentyloxy)benzyl)-2-methylimidazol-5-yl)-N-((E)-2-phenylethenesulfonyl)-2-propenamide], 208 to 209 °C. Compound `CCCCCOc1ccc(Cn2c(/C=C(\Cc3ccccc3)C(=O)NS(=O)(=O)/C=C/c3ccccc3)cnc2C)c(Cl)c1` [Example 67, (E)-2-benzyl-3-(1-(2-chloro-4-(1-pentyloxy)benzyl)-2-methylimidazol-5-yl)-N-((E)-2-phenylethenesulfonyl)-2-propenamide] gave a melting point of 171 to 172 °C.

The compound `CCCCCOc1ccc(Cn2c(/C=C(\CCCCC)C(=O)NS(=O)(=O)/C=C/c3ccccc3)cnc2C)c(Cl)c1` [Example 68, (E)-3-(1-(2-chloro-4-(1-pentyloxy)benzyl)-2-methylimidazol-5-yl)-2-(1-pentyl)-N-((E)-2-phenylethenesulfonyl)-2-propenamide] returned a melting point of 168 to 169 °C. The compound `CCCCCOc1ccc(Cn2c(/C=C(\Cc3cccnc3)C(=O)NS(=O)(=O)/C=C/c3ccccc3)cnc2C)c(Cl)c1` [Example 69, (E)-3-(1-(2-chloro-4-(1-pentyloxy)benzyl)-2-methylimidazol-5-yl)-2-((3-pyridyl)methyl)-N-((E)-2-phenylethenesulfonyl)-2-propenamide] gave a melting point of 156 to 158 °C.
